# Measurements published in US20220175675A1, “ENCAPSULATING MOLECULES IN FAT GLOBULES” (The Regents of the University of California, priority 2019, published 2022).
# Where “and” joins values, the source holds several entries; their conditions need not be identical. Equal entries are not always repeated. Where two headings read alike, the source gives them in different places. Marks after values point to notes of the source that are not given here.
# Tests used:
# [1] = Encapsulation of hydrophobic compounds into milk fat globules (loading capacity, encapsulation efficiency); assay type: physicochemical, bovine; settings: 10% v/v ethanol, 30 min; for % Encapsulation efficiency / maximal loading capacity (LC): room temperature; for maximal loading capacity (LC): maximal value over 50-2500 μM
# Description: Raw milk was procured from a local market and stored at 4° C. Milk was used for up to 4 days post purchase. MFGs were separated from raw milk using centrifugal separation following a modified version of the method by Gallier et al. (2010) (12). First, raw milk was diluted with Milli-Q water at 9:1 water to milk, and the solution was centrifuged at 3,000×g for 5 min using a fixed angle centrifuge rotor. Cream was then skimmed off the sides of the centrifuged tubes after discarding the aqueous phase. In order to remove more of the milk serum components, cream was reconstituted in water to reach 4% w/v, and subjected to another step of centrifugation at 3,000×g for 5 min Cream was collected as detailed prior, then reconstituted to 20% w/v in Milli-Q water. All separation steps were completed at room temperature.
# Encapsulation of test compounds in MFGs was accomplished by mixing ethanolic stock solution of a compound with 20% w/v cream suspended in water. The mixture was gently inverted several times to mix, then allowed in incubate in the dark.
# To test the effect of incubation temperature on the partitioning and encapsulation yield and efficiency, RA was added at 250 μM concentration and was allowed to incubate with MFGs for 30 min at 4, 22, and 40° C.
# To quantify the amount of compound encapsulated in MFGs, cream was separated from ethanol-containing aqueous phase via centrifugal separation at 3,000 x g for 5 min. Cream was skimmed and added to methanol at 50 mg/mL and vortexed vigorously for 1 min, then centrifuged at 16,000×g for 10 min. Top layer of methanol was collected and absorbance was measured at appropriate wavelength for each compound. An absorbance blank was prepared following the same encapsulation and separation steps in the absence of compound. λmax in methanol (nm) for each compound is reported in Table 1.
# Cream (20% w/v in Milli-Q water) that was separated following the steps in Example 2 was further separated via centrifugation at 3,000×g for 5 min. Fat content in cream was measured using a modified Folch method (13). An additional washing step was incorporated where the chloroform/water interface was washed with 1:1 water/methanol solution.
# [2] = cited from earlier work; for Water/octanol partitioning coefficient, Log P: Measured or estimated, from references; for Log P: octanol/water
# [3] = Water/octanol partitioning coefficient, Log P
# Description: One such molecular property that is used to predict partitioning potential is the octanol—water partition coefficient; Log P, which is the logarithm of the ratio of the solute concentration in the octanol phase to the solute concentration in the water phase, at a defined temperature.
# [4] = cited from earlier work
# [5] = Loading of curcumin in milk fat globules; assay type: physicochemical, bovine
# Description: Raw milk was used within 3-4 days of purchasing during which it was stored at 4° C. MFGs were isolated using a modified form of the method by […] et al. (2010) ^3° . […] Raw cream that was separated following the method stated in Example 31 was used for the quantification of oil content per gram of raw cream. […] The two immiscible phases were separated. […] Chloroform extracts were combined and the solvent was removed under vacuum at room temperature for 24 h. Mass of the isolated lipid from the sample was measured gravimetrically. Measurements were completed in triplicated from independent raw milk samples. […] Incubation was completed in the dark to prevent photodegradation of curcumin. […] Encapsulations measurements were conducted in triplicates. […] The mixture was then vortexed rigorously, followed by centrifugation at 16,000×g for 10 min. […] Curcumin containing samples were kept covered throughout the extraction and measurements steps. The encapsulation efficiency was calculated as follows: where CE is the mass of curcumin extracted from MFGs, and […]. The loading capacity was calculated as follows: where CE is the mass of curcumin extracted from MFGs, and MF is the mass of milk fat in MFGs suspension.
# [6] = AAPH measurement of curcumin oxidative stability; assay type: physicochemical
# Description: 100 mg/ml encapsulated oleosome and encapsulated whey protein emulsion were respectively added with 40mM AAPH (Sigma) or water as control. Encapsulated oleosome and whey protein emulsion were then rotated and curcumin was extracted at different time points.
# [7] = 200 μg/g added curcumin/cream, 1 v/v % ethanol, 10 min
# [8] = 400 μg/g added curcumin/cream, 2 v/v % ethanol, 10 min
# [9] = 600 μg/g added curcumin/cream, 3 v/v % ethanol, 10 min
# [10] = 1000 μg/g added curcumin/cream, 5 v/v % ethanol, 10 min
# [11] = 1600 μg/g added curcumin/cream, 8 v/v % ethanol, 10 min
# [12] = 2000 μg/g added curcumin/cream, 10 v/v % ethanol, 10 min
smiles,measurement,setting,value
O=c1c(O)c(-c2ccc(O)c(O)c2)oc2cc(O)ccc12 [Fisetin],% Encapsulation efficiency,[1]; 50 μM added compound,28.64 ± 5.20%
same,% Encapsulation efficiency,[1]; 100 μM added compound,29.16 ± 1.50%
same,% Encapsulation efficiency,[1]; 150 μM added compound,30.55 ± 3.76%
same,% Encapsulation efficiency,[1]; 200 μM added compound,29.83 ± 2.47%
same,% Encapsulation efficiency,[1]; 250 μM added compound,28.41 ± 1.56%
same,% Encapsulation efficiency,[1]; 500 μM added compound,15.89 ± 1.42 %
same,% Encapsulation efficiency,[1]; 1000 μM added compound,15.16 ± 1.46 %
same,% Encapsulation efficiency,[1]; 1500 μM added compound,7.57 ± 0.43 %
same,% Encapsulation efficiency,[1]; 2000 μM added compound,14.26 ± 2.77 %
same,% Encapsulation efficiency,[1]; 2500 μM added compound,4.49 ± 1.08 %
same,maximal loading capacity (LC),[1],9.77 μg per gram of milk fat
same,"Water/octanol partitioning coefficient, Log P",[2],"0.464-2.52 ^(14, 15)"
same,logP,[3],~1.5
CCOC(=O)[C@H](CCc1ccccc1)N[C@@H](C)C(=O)N1CCC[C@H]1C(=O)O [Enalapril],solubility in water (Remarks),[4],Drug sparingly soluble in water. Crushed tablets suspended in water
CCOC(=O)[C@H](CCc1ccccc1)N[C@@H](C)C(=O)N1[C@H](C(=O)O)C[C@@H]2CCC[C@@H]21 [Ramipril],solubility in water (Remarks),[4],Drug sparingly soluble in water. Crushed tablets suspended in water
O=C1Nc2ccc(Cl)cc2[C@@](C#CC2CC2)(C(F)(F)F)O1 [Efavirenz],Waters solubility,[4],8.55 µg/mL
same,Log P,[2],3.89-4.46
CC(=O)CC(c1ccccc1)c1c(O)c2ccccc2oc1=O (stereo not shown) [Warfarin],solubility in water (Remarks),[4],"Drug freely soluble in water, crushed tablets often dissolved in water."
COc1ccccc1OCCNCC(O)COc1cccc2[nH]c3ccccc3c12 (stereo not shown) [Carvedilol],solubility in water (Remarks),[4],Drug sparingly soluble in water. Special only has 1-month shelf-life.
CC[C@H](C)C(=O)O[C@H]1C[C@H](O)C=C2C=C[C@H](C)[C@H](CC[C@@H](O)C[C@@H](O)CC(=O)O)[C@H]21 [Pravastatin],solubility in water (Remarks),[4],"Drug freely soluble in water, crushed tablets often dissolved in water."
CC(=O)Oc1ccccc1C(=O)O [Aspirin],solubility in water (Remarks),[4],Very water soluble drug-use dispersible tablets
CC(C)(C)NCC(O)COc1cccc2c1CC(O)C(O)C2 (stereo not shown) [Nadolol],solubility in water (Remarks),[4],Drug sparingly soluble in water. Special only has 1-month shelf-life.
COc1cc(/C=C/C(=O)CC(=O)/C=C/c2ccc(O)c(OC)c2)ccc1O [curcumin],increase in encapsulation yield compared to reported loading values in emulsions formed using edible oils,[5],at least 3 folds
same,EE %,[5]; [7],62.09 ± 1.46%
same,"LC %, curcumin/milk fat",[5]; [7],368 μg/g and 368.11 ± 2.92 ^a μg/g
same,EE %,[5]; [8],61.17 ± 2.13%
same,"LC %, curcumin/milk fat",[5]; [8],244.69 ± 8.53 ^b μg/g
same,EE %,[5]; [9],62.10 ± 2.54%
same,"LC %, curcumin/milk fat",[5]; [9],372.60 ± 15.27 ^c μg/g
same,EE %,[5]; [10],66.56 ± 0.13 %
same,"LC %, curcumin/milk fat",[5]; [10],665.55 ± 1.31 ^d μg/g
same,EE %,[5]; [11],62.55 ± 0.37%
same,"LC %, curcumin/milk fat",[5]; [11],1000.76 ± 5.97 ^e μg/g
same,EE %,[5]; [12],59.33 ± 0.73%
same,"LC %, curcumin/milk fat",[5]; [12],1186.65±14.63 μg/g and 1186 μg/g and 1186.65 ± 14.63 ^ μg/g
same,EE % range over curcumin and ethanol concentrations,"[5]; 200-2000 μg/g of raw cream, 1 to 10% v/v ethanol, 10 min",59-64%
same,EE %,"[5]; Incubation time 10 min, fixed concentration of curcumin and ethanol",62.36 ± 1.85%
same,EE %,"[5]; Incubation time 20 min, fixed concentration of curcumin and ethanol",66.43 ± 4.32%
same,EE %,"[5]; Incubation time 30 min, fixed concentration of curcumin and ethanol",61.20 ± 1.78%
same,EE %,"[5]; Incubation time 40 min, fixed concentration of curcumin and ethanol",59.75 ± 2.10%
same,EE %,"[5]; Incubation time 50 min, fixed concentration of curcumin and ethanol",57.24 ± 0.83 %
same,EE %,"[5]; Incubation time 60 min, fixed concentration of curcumin and ethanol",64.30 ± 2.42%
same,curcumin encapsulated per gram of milk fat,"[5]; MFGs, simple diffusion",Greater than 1000 μg
same,curcumin absorbance remaining,"[6]; WPI control group (water), at 20 and 24 h",90%
same,curcumin absorbance remaining,"[6]; WPI, 40mM AAPH",0.03%
same,curcumin absorbance remaining,"[6]; WPI, 40mM AAPH, 20 h",22%
same,curcumin absorbance remaining,"[6]; WPI, 40mM AAPH, 24 h",12%
same,curcumin absorbance remaining,"[6]; oleosome control group (water), within 46 h",above 90%
same,curcumin absorbance remaining,"[6]; oleosome, 40mM AAPH",42%
same,curcumin absorbance remaining,"[6]; oleosome, 40mM AAPH, 20 h",76%
same,curcumin absorbance remaining,"[6]; oleosome, 40mM AAPH, 24 h",68%
same,Log P,[2],4.3
same,Log P,[2]; listed as Curcumin,approximately 4.3
O.O=c1c(O)c(-c2ccc(O)c(O)c2)oc2cc(O)cc(O)c12 [Quercetin hydrate],% Encapsulation efficiency,[1]; 50 μM added compound,25.27 ± 3.47^ %
same,% Encapsulation efficiency,[1]; 100 μM added compound,45.35 ± 8.53 %
same,% Encapsulation efficiency,[1]; 150 μM added compound,43.78 ± 4.16 %
same,% Encapsulation efficiency,[1]; 200 μM added compound,50.09 ± 3.71 %
same,% Encapsulation efficiency,[1]; 250 μM added compound,48.95 ± 3.47 %
same,% Encapsulation efficiency,[1]; 500 μM added compound,49.00 ± 1.17 %
same,% Encapsulation efficiency,[1]; 1000 μM added compound,12.91 ± 1.78 %
same,% Encapsulation efficiency,[1]; 1500 μM added compound,18.38 ± 9.27 %
same,% Encapsulation efficiency,[1]; 2000 μM added compound,17.92 ± 4.31 %
same,% Encapsulation efficiency,[1]; 2500 μM added compound,13.70 ± 1.30 %
same,maximal loading capacity (LC),[1],12.97 μg per gram of milk fat
same,"encapsulation efficiency (EE %), maximal/overall value",[1]; over tested concentrations,50%
same,"Water/octanol partitioning coefficient, Log P",[2],"1.82-2.075 ^(16, 17)"
CCOC(=O)C1=C(COCCN)NC(C)=C(C(=O)OC)C1c1ccccc1Cl (stereo not shown) [Amlodipine],solubility in water (Remarks),[4],Drug sparingly soluble in water. Special only has 1-month shelf-life.
